The test system of series [1] is C. neoformans H99. Description: Microtiter checkerboard synergy with FLC. The class given is cell-based, Cryptococcus neoformans. The following applies: in combination with FLC, MIC read at 50% inhibition, synergy FICI < 0.5. The procedure: An important consideration for developing a new treatment for CM is the potential for inclusion in combination therapy. We evaluated the synergy of APX001A and APX2020 in combination with FLC using standard microtiter dilution techniques ([33]). […] Importantly, no antagonism was observed.
To establish the antimicrobial activity of the APX001A analogs, broth microdilution susceptibility testing was performed according to Clinical and Laboratory Standards Institute (CLSI) guidelines M27-A3 ([47]) for yeasts and M38-A2 for molds ([48]). APX001A and analogs were first diluted in DMSO to obtain intermediate dilutions. These were further diluted in microtiter plates to obtain a final concentration of 2 to 0.002 μg/ml. One microliter of DMSO was added to the no-drug control wells. The solutions were mixed on a plate shaker for 10 min, and the plates were incubated at 35°C for 40 to 48 h (C. albicans, A. fumigatus) and 72 h (C. neoformans). The minimum concentration that led to a 50% reduction in fungal growth compared to that for the control (determined with the aid of a reading mirror) was determined as the MIC for C. albicans and C. neoformans. The minimum concentration that led to the shortening of hyphae compared to the hyphal growth in DMSO control wells was determined as the minimum effective concentration (MEC) for A. fumigatus (as read for the echinocandins). […]

In series [2] the test system is Candida tropicalis strains. Set-up: method as in ref 24 = [24]; 24. Watanabe NA , Horii T , Miyazaki M , Hata K 2011 In vitro activity of E1210 and in vivo activity of E1211, a water-soluble prodrug of E1210, in combination with other antifungals, abstr F1-1378 . The following applies: cited from earlier work.
The conditions of series [3]: mouse, in vivo; cited from earlier work.
Series [4] relates to PIGW protein. Details: method as in PMID 22143530. Particulars: closest mammalian ortholog of fungal Gwt1; cited from earlier work.
For series [5], the system named is C. neoformans. Details: method as in PMID 23740727. The following applies: 46 strains of C. neoformans, global study; cited from earlier work.
Series [6] relates to C. neoformans strain H99. The experiment in a line: Murine model of cryptococcal meningitis, APX001 alone and with FLC (no ABT). The class given is in vivo, Cryptococcus neoformans. The following applies: monotherapy 7 days; APX001 390 mg/kg TID oral gavage, FLC 80 mg/kg/day i.p.; male CD-1 mice. How it is done:
The efficacies of APX001 and FLC were evaluated in a well-established mouse CM model ([34]). Since Cryptococcus infections can be hematogenously disseminated to other organs, the numbers of CFU in both lung and brain tissue were evaluated. Male CD-1 mice were infected with 5.9 × 10^4 CFU of C. neoformans strain H99 via lateral tail vein injection. Mice were assigned to four groups (n = 10), consisting of (i) treatment with APX001, (ii) treatment with APX001 plus FLC, (iii) treatment with FLC, or (iv) no treatment as a control. Treatment was initiated within 1 h after infection. APX001 was administered by oral gavage at a dose of 390 mg/kg thrice daily (TID), with each dose being administered roughly 8 h apart. […] FLC (2 mg/ml; Sagent Pharmaceuticals, Schaumburg, IL) was administered at a dose of 80 mg/kg/day intraperitoneally (i.p.).
Brain and lung burdens in mice were measured at 7 days postinfection with C. neoformans H99. Male CD-1 mice were infected with 5.9 × 10^4 CFU of C. neoformans strain H99 via the lateral tail vein. Treatment was initiated at about 1 h postinfection and continued for 7 days. APX001 was administered by oral gavage at a dose of 390 mg/kg thrice daily, with each dose being administered roughly 8 h apart. FLC (2 mg/ml; Sagent Pharmaceuticals, Schaumburg, IL) was administered at a dose of 80 mg/kg/day i.p. once daily. Fungal burden data were log10 transformed and evaluated using Kruskal-Wallis tests with Dunn's multiple-comparison test for post hoc analysis (Prism software, v5; GraphPad Software, Inc., San Diego, CA). A P value of ≤0.05 was considered statistically significant (*, P ≤ 0.05; **, P ≤ 0.01; ***, P ≤ 0.001). The 95% confidence interval (CI) is presented.
C. neoformans strain H99 was grown in yeast extract-peptone-dextrose broth at 30°C on a shaker (220 rpm) for 24 h, centrifuged (1,980 relative centrifugal force), and washed twice in phosphate-buffered saline (PBS), resuspended in PBS, and quantified by hemacytometric count. Male CD-1 mice were infected with ∼5 × 10^4 CFU per mouse via lateral tail vein injection of 100 μl. Mice were weighed, and treatment was begun within 1 h after infection. Treatments were administered daily for 7 days. Mice were weighed daily and observed for acute and chronic adverse symptoms. Mice were sacrificed on day 8, and the brain and left lung were homogenized and cultured for quantitative determination of the tissue burden (number of CFU per gram of tissue). Tissues were homogenized for 25 s in 1 ml phosphate-buffered saline using two 6.5-mm steel beads and a Mini-Beadbeater 16 apparatus (Biospec Products, Inc., Bartlesville, OK) and serially diluted in 10-fold steps. Aliquots (100 μl) of homogenate were plated and incubated for 3 to 7 days at 37°C. Fungal burden data were log10 transformed and evaluated using Kruskal-Wallis tests with Dunn's multiple-comparison test for post hoc analysis (Prism software, v5; GraphPad Software, Inc., San Diego, CA). A P value of ≤0.05 was considered statistically significant.

The source of these data is publication PMC6105804, “In Vitro and In Vivo Evaluation of APX001A/APX001 and Other Gwt1 Inhibitors against Cryptococcus” (Antimicrobial Agents and Chemotherapy, 2018).

One may read the MIC90 as an inhibitory concentration at the 90% level, which refers to growth in some studies and to a panel of isolates in others.

Structures are written as SMILES. Converted amounts (≈) assume the structure as drawn.

`Nc1ncccc1-c1cc(Cc2ccc(COc3ccccn3)cc2)no1` [APX001A]: the “fractional inhibitory concentration index (FICI)” value in series [1] is recorded as 0.37. In series [2], the “strains with synergy with FLC” value is given as 9 of 10. For the same compound, the half-life in mice in series [3] is 1.40 to 2.75 h. Moreover, the “sensitivity of PIGW protein to inhibition” value in series [4] is listed as “not sensitive to inhibition”.
With `OC(Cn1cncn1)(Cn1cncn1)c1ccc(F)cc1F` [FLC, fluconazole, reference compound], in series [5], the MIC90 is 4 µg/mL (≈ 13.1 µM). Moreover, in series [6], the “reduction in brain fungal burden vs untreated control” value is 1.04 log10 CFU/g and the “reduction in lung fungal burden vs untreated control” value amounted to 1.30 log10 CFU/g.
